Reference: ChEMBL document CHEMBL4602605, “Fluoroquinolones structural and medicinal developments (2013-2018): Where are we now?” (Bioorg Med Chem, 2019)
Values after ≈ are worked out from the molar mass of the structure shown.

Assays:
Format in all cases: functional
Escherichia coli [1] = assay: Antimicrobial activity against Escherichia coli ATCC 25922 by CLSI method
Staphylococcus aureus [2] = assay: Antimicrobial activity against Staphylococcus aureus ATCC 25923 by CLSI method
Escherichia coli [3] = assay: Antimicrobial activity against penicillin-resistant Escherichia coli at < 1 ug/ml relative to control
Enterococcus faecalis [4] = assay: Antimicrobial activity against Enterococcus faecalis ATCC 29212 incubated for 24 hrs by serial dilution method; details: ATCC 29212, 24 h
Staphylococcus aureus [5] = assay: Antimicrobial activity against methicillin-susceptible Staphylococcus aureus ATCC 29213 incubated for 24 hrs by serial dilution method; details: ATCC 29213, 24 h
Staphylococcus aureus [6] = assay: Antimicrobial activity against methicillin-resistant Staphylococcus aureus ATCC 33591 incubated for 24 hrs by serial dilution method; details: ATCC 33591, 24 h
Escherichia coli [7] = assay: Antimicrobial activity against Escherichia coli ATCC 35218 incubated for 24 hrs by serial dilution method; details: ATCC 35218, 24 h
Klebsiella pneumoniae [8] = assay: Antimicrobial activity against Klebsiella pneumoniae ATCC 35657 incubated for 24 hrs by serial dilution method; details: ATCC 35657, 24 h
Moraxella catarrhalis = assay: Antimicrobial activity against Moraxella catarrhalis ATCC 25238 incubated for 24 hrs by serial dilution method; details: ATCC 25238, 24 h
A549 = assay: Growth inhibition of human A549 cells at 10 uM incubated for 48 hrs by MTT assay relative to control; details: A549, 48 h, read-out: GI
HCT-116 = assay: Growth inhibition of human HCT116 cells at 10 uM incubated for 48 hrs by MTT assay relative to control; details: HCT-116, 48 h, read-out: GI
HeLa = assay: Growth inhibition of human HeLa cells at 10 uM incubated for 48 hrs by MTT assay relative to control; details: read-out: GI
PANC-1 = assay: Growth inhibition of human PANC1 cells at 10 uM incubated for 48 hrs by MTT assay; details: PANC-1, 48 h, read-out: GI
Escherichia coli [9] = assay: Antimicrobial activity against Escherichia coli ATCC 9637 incubated for 24 hrs by CLSI-based broth microdilution method; details: W ATCC 9637, 24 h
Pseudomonas aeruginosa [10] = assay: Antimicrobial activity against Pseudomonas aeruginosa ATCC BAA-427 incubated for 24 hrs by CLSI-based broth microdilution method; details: ATCC BAA-427, 24 h
Staphylococcus aureus [11] = assay: Antimicrobial activity against methicillin-resistant Staphylococcus aureus ATCC 700699 incubated for 24 hrs by CLSI-based broth microdilution method; details: ATCC 700699, 24 h
Staphylococcus aureus [12] = assay: Antimicrobial activity against gentamicin-resistant Staphylococcus aureus ATCC 33592 incubated for 24 hrs by CLSI-based broth microdilution method; details: ATCC 33592, 24 h
Klebsiella pneumoniae [13] = assay: Antimicrobial activity against Klebsiella pneumoniae ATCC 27736 incubated for 24 hrs by CLSI-based broth microdilution method; details: ATCC 27736, 24 h
Staphylococcus aureus [14] = assay: Antimicrobial activity against Staphylococcus aureus ATCC 29213 incubated for 24 hrs by CLSI-based dilution method; details: ATCC 29213, 24 h
Staphylococcus aureus [15] = assay: Antimicrobial activity against Staphylococcus aureus ATCC 25923 incubated for 24 hrs by CLSI-based dilution method; details: ATCC 25923, 24 h
Pseudomonas aeruginosa [16] = assay: Antimicrobial activity against Pseudomonas aeruginosa ATCC 43288 incubated for 18 to 24 hrs by microbroth dilution method
[17] = tested on: Yersinia pseudotuberculosis; assay: Antimicrobial activity against Yersinia pseudotuberculosis ATCC 911 incubated for 18 to 24 hrs by microbroth dilution method
Staphylococcus aureus [18] = assay: Antimicrobial activity against Staphylococcus aureus ATCC 25923 incubated for 18 to 24 hrs by microbroth dilution method
Enterococcus faecalis [19] = assay: Antimicrobial activity against Enterococcus faecalis ATCC 29212 incubated for 18 to 24 hrs by microbroth dilution method
Bacillus cereus = assay: Antimicrobial activity against Bacillus cereus 709 Roma incubated for 18 to 24 hrs by microbroth dilution method
[20] = tested on: Mycolicibacterium smegmatis; assay: Antimicrobial activity against Mycobacterium smegmatis ATCC 607 incubated for 48 to 72 hrs by microbroth dilution method
Escherichia coli [21] = assay: Antimicrobial activity against Escherichia coli ATCC 25922 incubated for 18 to 24 hrs by microbroth dilution method
[22] = tested on: Mycobacterium tuberculosis; assay: Antimicrobial activity against Mycobacterium tuberculosis H37Rv incubated for 10 days by microbroth dilution method; details: 240 h
Mycobacterium avium = assay: Antimicrobial activity against Mycobacterium avium incubated for 10 days by microbroth dilution method; details: 240 h
Mycolicibacter terrae = assay: Antimicrobial activity against Mycobacterium terrae incubated for 10 days by microbroth dilution method; details: 240 h

SMILES: O=C(O)c1cn(C2CC2)c2cc(N3CCN(C(=O)c4ccccc4)CC3)c(F)cc2c1=O
- MIC (Escherichia coli [1]): 2 µg/mL (≈ 4.59 µM)
- MIC (Staphylococcus aureus [2]): 1 µg/mL (≈ 2.3 µM)

SMILES: O=C(O)c1cn(C2CC2)c2cc(N3CCN(Cc4ccccc4)CC3)c(F)cc2c1=O
- MIC (Escherichia coli [1]): 0.25 µg/mL (≈ 0.593 µM)
- MIC (Staphylococcus aureus [2]): 0.25 µg/mL (≈ 0.593 µM)

SMILES: CCCOC(=O)c1cn(C2CC2)c2cc(N3CCNCC3)c(F)cc2c1=O
- inhibition (INH) (Escherichia coli [3]): >60%

SMILES: CCN(CC)Cc1cn(-c2cc3c(cc2F)c(=O)c(C(=O)NO)cn3C2CC2)nn1
- MIC (Enterococcus faecalis [4]): 64 µg/mL (≈ 154 µM)
- MIC (Staphylococcus aureus [5]): 64 µg/mL (≈ 154 µM)
- MIC (Staphylococcus aureus [6]): > 64 µg/mL
- MIC (Escherichia coli [7]): 16 µg/mL (≈ 38.6 µM)
- MIC (Klebsiella pneumoniae [8]): 8 µg/mL (≈ 19.3 µM)
- MIC (Moraxella catarrhalis): 16 µg/mL (≈ 38.6 µM)
- inhibition of growth at 10 µM (A549): 40%
- inhibition of growth at 10 µM (HCT-116): 30%
- inhibition of growth at 10 µM (HeLa): 10%
- inhibition of growth at 10 µM (PANC-1): 30%

SMILES: CC(C)NCc1cn(-c2cc3c(cc2F)c(=O)c(C(=O)NO)cn3C2CC2)nn1
- MIC (Enterococcus faecalis [4]): > 64 µg/mL
- MIC (Staphylococcus aureus [5]): > 64 µg/mL
- MIC (Staphylococcus aureus [6]): > 64 µg/mL
- MIC (Escherichia coli [7]): > 64 µg/mL
- MIC (Klebsiella pneumoniae [8]): > 64 µg/mL
- MIC (Moraxella catarrhalis): > 64 µg/mL
- inhibition of growth at 10 µM (A549): 35%
- inhibition of growth at 10 µM (HCT-116): 30%
- inhibition of growth at 10 µM (HeLa): 30%
- inhibition of growth at 10 µM (PANC-1): 15%

SMILES: CCn1cc(C(=O)O)c(=O)c2cc(F)c(-n3cc(CO[C@H]4O[C@H](COC(C)=O)[C@@H](OC(C)=O)[C@H](OC(C)=O)[C@H]4OC(C)=O)nn3)c(F)c21
- MIC (Escherichia coli [9]): > 50 µg/mL
- MIC (Pseudomonas aeruginosa [10]): > 50 µg/mL
- MIC (Staphylococcus aureus [11]): > 50 µg/mL
- MIC (Staphylococcus aureus [12]): > 50 µg/mL
- MIC (Klebsiella pneumoniae [13]): > 50 µg/mL
- MIC (Staphylococcus aureus [14]): > 50 µg/mL
- MIC (Staphylococcus aureus [15]): > 50 µg/mL

SMILES: CCn1cc(C(=O)O)c(=O)c2cc(F)c(-n3cc(CO[C@H]4O[C@H](COC(C)=O)[C@@H](OC(C)=O)[C@H](OC(C)=O)[C@H]4NC(C)=O)nn3)c(F)c21
- MIC (Escherichia coli [9]): 12.5 µg/mL (≈ 18.4 µM)
- MIC (Pseudomonas aeruginosa [10]): > 50 µg/mL
- MIC (Staphylococcus aureus [11]): > 50 µg/mL
- MIC (Staphylococcus aureus [12]): 6.25 µg/mL (≈ 9.2 µM)
- MIC (Klebsiella pneumoniae [13]): 6.25 µg/mL (≈ 9.2 µM)
- MIC (Staphylococcus aureus [14]): 6.25 µg/mL (≈ 9.2 µM)
- MIC (Staphylococcus aureus [15]): 6.25 µg/mL (≈ 9.2 µM)

SMILES: CN(C)Cc1cn(-c2cc3c(cc2F)c(=O)c(C(=O)NO)cn3C2CC2)nn1
- MIC (Enterococcus faecalis [4]): > 64 µg/mL
- MIC (Staphylococcus aureus [5]): > 64 µg/mL
- MIC (Staphylococcus aureus [6]): > 64 µg/mL
- MIC (Escherichia coli [7]): > 64 µg/mL
- MIC (Klebsiella pneumoniae [8]): > 64 µg/mL
- MIC (Moraxella catarrhalis): > 64 µg/mL
- inhibition of growth at 10 µM (A549): 30%
- inhibition of growth at 10 µM (HCT-116): 15%
- inhibition of growth at 10 µM (HeLa): 23%
- inhibition of growth at 10 µM (PANC-1): 20%

SMILES: O=C(O)c1cn(C2CC2)c2cc(N3CCN(Cn4nc(CN5CCN(c6ccc([N+](=O)[O-])cc6)CC5)oc4=S)CC3)c(F)cc2c1=O
- MIC (Pseudomonas aeruginosa [16]): 0.03 µg/mL (≈ 0.0451 µM)
- MIC [17]: 0.03 µg/mL (≈ 0.0451 µM)
- MIC (Staphylococcus aureus [18]): 0.03 µg/mL (≈ 0.0451 µM)
- MIC (Enterococcus faecalis [19]): 0.03 µg/mL (≈ 0.0451 µM)
- MIC (Bacillus cereus): 0.03 µg/mL (≈ 0.0451 µM)
- MIC [20]: 0.03 µg/mL (≈ 0.0451 µM)
- MIC (Escherichia coli [21]): 0.03 µg/mL (≈ 0.0451 µM)

SMILES: CCn1cc(C(=O)O)c(=O)c2cc(F)c(N3CCN(Cn4nc(CN5CCN(c6ccc([N+](=O)[O-])cc6)CC5)oc4=S)CC3)cc21
- MIC (Pseudomonas aeruginosa [16]): < 0.25 µg/mL
- MIC [17]: < 0.25 µg/mL
- MIC (Staphylococcus aureus [18]): 0.25 µg/mL (≈ 0.383 µM)
- MIC (Enterococcus faecalis [19]): < 0.25 µg/mL
- MIC (Bacillus cereus): < 0.25 µg/mL
- MIC [20]: 1 µg/mL (≈ 1.53 µM)
- MIC (Escherichia coli [21]): 0.03 µg/mL (≈ 0.046 µM)

SMILES: CCn1cc(C(=O)O)c(=O)c2cc(F)c(-n3cc(CO[C@H]4OC[C@@H](OC(C)=O)[C@@H](OC(C)=O)[C@H]4OC(C)=O)nn3)c(F)c21
- MIC (Escherichia coli [9]): 6.25 µg/mL (≈ 10.3 µM)
- MIC (Pseudomonas aeruginosa [10]): > 50 µg/mL
- MIC (Staphylococcus aureus [11]): > 50 µg/mL
- MIC (Staphylococcus aureus [12]): 3.12 µg/mL (≈ 5.13 µM)
- MIC (Klebsiella pneumoniae [13]): 3.12 µg/mL (≈ 5.13 µM)
- MIC (Staphylococcus aureus [14]): 3.12 µg/mL (≈ 5.13 µM)
- MIC (Staphylococcus aureus [15]): 3.12 µg/mL (≈ 5.13 µM)

SMILES: CCCCCOC(=O)c1cn(C2CC2)c2cc(N3CCNCC3)c(F)cc2c1=O
- inhibition (INH) (Escherichia coli [3]): >60%

SMILES: CCn1cc(C(=O)O)c(=O)c2cc(F)c(N3CCN(Cn4nc(CN5CCN(c6ccc([N+](=O)[O-])cc6)CC5)n(-c5ccc(F)cc5)c4=S)CC3)cc21
- MIC (Pseudomonas aeruginosa [16]): 0.48 µg/mL (≈ 0.644 µM)
- MIC [17]: 0.24 µg/mL (≈ 0.322 µM)
- MIC (Staphylococcus aureus [18]): 0.48 µg/mL (≈ 0.644 µM)
- MIC (Enterococcus faecalis [19]): 0.25 µg/mL (≈ 0.335 µM)
- MIC (Bacillus cereus): 0.24 µg/mL (≈ 0.322 µM)
- MIC [20]: 0.244 µg/mL (≈ 0.327 µM)
- MIC (Escherichia coli [21]): < 0.03 µg/mL

SMILES: CCn1cc(C(=O)O)c(=O)c2cc(F)c(-c3cc4cc(C(C)(C)C)cc(C(C)(C)C)c4oc3=O)cc21
- MIC [22]: 3.1 µg/mL (≈ 6.31 µM)
- MIC (Mycobacterium avium): 3.1 µg/mL (≈ 6.31 µM)
- MIC (Mycolicibacter terrae): 1.5 µg/mL (≈ 3.05 µM)

SMILES: CCn1cc(C(=O)O)c(=O)c2cc(F)c(-n3cc(CO[C@H]4O[C@H](COC(C)=O)[C@@H](OC(C)=O)[C@H](OC(C)=O)[C@@H]4OC(C)=O)nn3)c(F)c21
- MIC (Escherichia coli [9]): 50 µg/mL (≈ 73.5 µM)
- MIC (Pseudomonas aeruginosa [10]): > 50 µg/mL
- MIC (Staphylococcus aureus [11]): > 50 µg/mL
- MIC (Staphylococcus aureus [12]): 12.5 µg/mL (≈ 18.4 µM)
- MIC (Klebsiella pneumoniae [13]): 25 µg/mL (≈ 36.7 µM)
- MIC (Staphylococcus aureus [14]): 12.5 µg/mL (≈ 18.4 µM)
- MIC (Staphylococcus aureus [15]): 12.5 µg/mL (≈ 18.4 µM)
